Test results taken from patent publication US12083172B2, “Vaccines against an oncogenic isoform of HER2 (ErbB2) and methods of using the same” (Duke University, priority 2014, dated 2024).
“Also recorded” adds a separate entry of the source. Read-outs that look alike come from different tables or passages of the source.

Assays:
[1] = system: MM3MG cells stably expressing HER2d16; conditions: MM3MG-HER2d16 s.c. in SCID-Beige mice; for effect of lapatinib on growth of HER2d16 tumors: lapatinib oral gavage 75 mg/kg, 5 times a week, from day 8, FIG. 7, 75 mg/kg
Method: (§1) MM3MG cells stably expressing the indicated genes were implanted subcutaneously into SCID-Beige mice (100,000 per mouse in PBS) at days 0. Mice were treated weekly with T-DM1 via tail vein injection (200 μg/mouse) beginning at day 10. Tumor growth was measured by calipers at the indicated days (N=5, bars represent SE).
as §1, with “lapatinib by oral gavage (75 mg/kg/5 days week)” for “T-DM1 via tail vein injection (200 μg/mouse) beginning”, “8.” for “10.”
(§2) Experiments using BALB/c, and SCID-Beige mice (obtained from Jackson Labs) were done in accordance with Duke Institutional Animal Care and Use Committee-approved protocols. For tumor vaccine experiments, Human HER2-transgenic mice (kindly provided by Dr. Wei-Zen Wei, Wayne State University, Detroit, MI^4) were crossed with BALB/c mice (Jackson Labs) to permit implantation of MM3MG-HER2d16 tumors and genotyped by PCR as previously described^5. In immnodeficient animals, stable cells were injected s.c. into the flank of SCID-beige mice (at indicated cells/animal) and measured as indicated. Tumor measurements were made using calipers and volumes calculated using the formula [v=width×width×(length/2)] whereas statistical differences were calculated using a mixed effects regression model using autoregressive covariance. In treatment experiments, T-DM1 was weekly delivered via tail vein (200 μg/mouse) while Lapatinib was given by oral gavage (5 times a week, 75 mg/kg).

HER2-WT MM3MG = conditions: MM3MG-HER2-WT s.c. in SCID-Beige mice; T-DM1 weekly via tail vein, 200 μg/mouse, from day 10; FIG. 6
Method: as §1, §2

Row | Compound | effect of lapatinib on growth of HER2d16 tumors [1] | effect of lapatinib on growth of HER2d16 tumors ([1]; listed as lapatinib) | effect of T-DM1 on growth of HER2d16 tumors ([1]; T-DM1 weekly via tail vein, 200 μg/mouse, from day 10, FIG. 6) | effect of T-DM1 on growth of HER2-WT MM3MG tumors (HER2-WT MM3MG)
1 | CS(=O)(=O)CCNCc1ccc(-c2ccc3ncnc(Nc4ccc(OCc5cccc(F)c5)c(Cl)c4)c3c2)o1 [Lapatinib] | only had a minor effect | resistant | – | –
2 | Trastuzumab-DM1 [T-DM1] | – | – | more resistant; also recorded: only weakly impacted | significantly suppressed
